Measured values taken from US20090209620A1, “Direct Reversal Of The Suppressive Function Of CD4+Regulatory T Cells Via Toll-Like Receptor 8 Signaling” (priority 2005, published 2009).
“Also recorded” adds a separate entry of the source. In the oligonucleotide strings, read from the 5' end, every base follows the letter of its sugar. An asterisk marks phosphorothioate; unmarked linkages are phosphodiester. Other units and linkages are bracketed, terminal groups are in braces. A string of capitals states the bases alone. d = 2'-deoxy (DNA)

These compounds were tested on CD4+ Treg cells (Treg102, Treg164) (assay: Proliferation assay without DCs: Treg suppression of naive CD4+ T cell proliferation, anti-CD3-coated plates). Settings: absence of DCs; anti-CD3-coated plates; oligonucleotides 3 ug/ml in medium.
Format: cell-based, human
Text: Establishing Treg cell lines and purifying natural CD4^+ CD25^+ Treg cells CD4^+ Treg clones were established from CD4^+ tumor-infiltrating lymphocytes (TIL102 and TIL164) and maintained in RPMI 1640 medium containing 10% human AB serum and recombinant IL-2 (300 IU/ml) using methods well known in the art (See, e.g., H. Y. Wang et al., Immunity 20, 107-118 (2004)). Treg clones derived from TIL102 or TIL164 cells were pooled and designated Treg102 or Treg164. Naturally occurring CD4^+ CD25^+ Treg cells were obtained by sorting CD4^+ T cell populations from fresh PBMCs after staining with anti-CD4 and anti-CD25 antibodies. To obtain optimal expansion, the OKT3 expansion method was performed using methods well known in the art (See, e.g., H. Y. Wang et al., Immunity 20, 107-118 (2004)). T cell clones were maintained at a low IL-2 concentration (300 IU/ml). Melanoma cell lines and EBV-transformed B-cell lines used in this study were cultured in RPMI 1640 medium containing 10% FCS. Human embryonic kidney (HEK) 293 and Epstein-Barr virus (EBV)-transformed B cell lines were maintained in RPMI 1640 with 10% fetal calf serum (FCS).
B. Proliferation assay without DCs: 1×10^5 näive CD4 T cells were cultured with regulatory T cells at different ratios (1: 0.2, 1:0.1 and 1:0.05) in anti-CD3 mAb-coated (2 ug/ml) 96-well plates in the presence or absence of the following TLR ligands or cytokines: CpG-A (3 ug/ml), CpG-B (3 ug/ml), LPS (100 ng/ml), TNF.-α (20 ng/ml), IFN-α (100 ng/ml), or IL-6 (100 ng/ml). After 56 h of culture, [3H]thymidine was added at a final concentration of 1 uCi/well, followed by an additional 16 h of culture. The incorporation of [^3H]thymidine was measured with a liquid scintillation counter.
Näive CD4^+ T cell proliferation experiments were performed similar to those in FIG. 1A, but in the absence of DCs. […] The reversal effect of CpG-A (SEQ ID NO: 1) contrasts with the failure of CpG-B (SEQ ID NO: 2), LPS, TNF-α, IL-6 or IFN-α to block the suppressive activity of CD4^+ Treg cells against naive CD4^+ T cells (FIG. 1B).
To further define the CpG-A (SEQ ID NO: 1) sequences responsible for the observed reversal effect, CpG-NG (SEQ ID NO: 5) and Poly-G10 (SEQ ID NO: 6), were tested for their ability to reverse the suppressive function of Treg cells. Naive CD4^+ T cells were mixed with CD4^+ Treg cells in anti-CD3 antibody-coated 96-wells with 200 μl of medium containing CpG-NG (SEQ ID NO: 5), CpG-A (SEQ ID NO: 1) or Poly-G10 (SEQ ID NO: 6). The proliferation assay was conducted as described in FIG. 1. […] For the experiments shown in FIG. 2B, naive CD4^+ T cells were mixed with CD4^+ Treg cells in anti-CD3 antibody-coated 96-wells with 200 μl of medium containing Poly-A10 (SEQ ID NO: 7), Poly-T10 (SEQ ID NO: 9) or Poly-C10 (SEQ ID NO: 8), while the Poly-G10 (SEQ ID NO: 6) oligonucleotides served as a positive control.
A series of oligonucleotides with decreasing numbers of guanosine nucleosides was constructed to determine the minimal number required for the reversal effect. For the experiments in FIG. 2C, CD4^+ T cells were mixed with CD4^+ Treg cells in anti-CD3 antibody-coated 96-wells containing medium with protected phosphorothioate linked guanosine nucleoside containing oligonucleotides of various lengths, while the unprotected five guanosines (SEQ ID NO: 10) served as a control.

Compound | reversal of Treg cell-mediated suppression of naive CD4+ T cell proliferation
TNF-α | failure
C4G1: a single guanosine plus other nucleotides with protected phosphorothioate linkages (DNA dC*dC*dG*dC*dC) | found to reverse the suppressive activity of Treg cells
G5: unprotected five guanosines with a regular phosphodiester backbone (DNA GGGGG; unmodified DNA) | failed to reverse the suppressive activity of Treg cells
Poly-A10: Poly-A oligonucleotide with the same protected phosphorothioate backbone (DNA dA*dA*dA*dA*dA*dA*dA*dA*dA*dA) | failed to reverse the suppressive function of Treg cells; also recorded: lacked the ability to reverse the suppressive activity of Treg cells
Poly-C10: Poly-C oligonucleotide with the same protected phosphorothioate backbone (DNA dC*dC*dC*dC*dC*dC*dC*dC*dC*dC) | failed to reverse the suppressive function of Treg cells; also recorded: lacked the ability to reverse the suppressive activity of Treg cells
CpG-NG: oligonucleotide derived from CpG-A, tested to define the sequences responsible for reversal (DNA AAAAGACGATCGTCAAAAAA; listed as DNA, chemistry not given here) | Treg suppression reversal was lost
CpG-B: CpG-B oligonucleotide, ligand for TLR9 (DNA GGGGGAGCATGCTGCGGGGG; listed as DNA, chemistry not given here) | failure
T4G1: a single guanosine plus other nucleotides with protected phosphorothioate linkages (DNA dT*dT*dG*dT*dT) | found to reverse the suppressive activity of Treg cells
A4G1: a single guanosine plus other nucleotides with protected phosphorothioate linkages (DNA dA*dA*dG*dA*dA) | found to reverse the suppressive activity of Treg cells

These compounds were tested on CD4+ Treg cells (assay: Pretreatment of Treg cells, then proliferation assay with naive CD4+ T cells (without DCs)). Settings: Treg cells pretreated 3 days, washed, then mixed with naive CD4+ T cells.
Format: cell-based, human
Experimental: C. Pretreatment of Treg cells: 1×10^6 Treg cells were cultured in medium containing CpG-A (3 ug/ml), CpG-B (3 ug/ml), LPS (100 ng/ml), TNF.-α (20 ng/ml), IFN-α (100 ng/ml) or IL-6 (100 ng/ml) for 3 days. After three washes, the pretreated Treg cells were cultured with näive CD4^+ T cells in anti-CD3 mAb-coated plates (without DCs) to determine their suppressive function. After 56 h of culture, [3H]thymidine was added at a final concentration of 1 uCi/well, and cultured for an additional 16 h. The incorporation of [^3H]thymidine was measured with a liquid scintillation counter.
To exclude the possibility that the purified naive CD4^+ T cells might have been contaminated with a small number of monocytes or DCs, cultured CD4^+ Treg cells (100% purity) were pretreated with CpG-A (SEQ ID NO: 1) for 3 days. After three washes, the pretreated CD4^+ Treg cells were mixed with naive CD4^+ T cells in anti-CD3 antibody-coated plates to evaluate their ability to suppress the proliferation of naive CD4^+ T cells.
To determine whether the CpG motif in CpG A confers the ability to reverse the suppressive function of CD4^+ Treg cells, CD4^+ Treg cell lines were pretreated for 3 days with CpG-A (SEQ ID NO: 1), non-CpG-A (CG changed to GC in CpG-A; SEQ ID NO: 3), CpG B (SEQ ID NO: 2) or non-CpG-B (CG changed to GC in CpG-B; SEQ ID NO: 4), and used them in proliferation assays following extensive washes.
Treg cells were pretreated with Poly-G2 (SEQ ID NO: 15) in different concentrations of chloroquine to examine whether acidification is required for the function of guanosine containing oligonucleotides. After extensive washes, the pretreated Treg cells were used for functional assays.

Compound | reversal of suppressive function of CD4+ Treg cells after pretreatment
non-CpG-B: CG changed to GC in CpG-B (DNA TGCTGCTTTTGTGCTTTTGTGCTT; listed as DNA, chemistry not given here) | lacked any discernible effect
CpG-B: CpG-B oligonucleotide, ligand for TLR9 (DNA GGGGGAGCATGCTGCGGGGG; listed as DNA, chemistry not given here) | lacked any discernible effect

Same assay, conditions: pretreatment together with chloroquine

Compound | reversal effect with Treg cells pretreated in different concentrations of chloroquine
Poly-G2: guanosine containing oligonucleotide (DNA AAGGA; listed as DNA, chemistry not given here) | decreased with increasing concentrations of chloroquine

These compounds were tested on antigen-specific Treg102 and Treg164 cells (assay: TLR ligand assays: reversal of Treg suppression of naive CD4+ T cell proliferation). Settings: Treg102, Treg164 or naturally occurring CD4+CD25+ Treg cells (FIG. 4A-B).
Format: cell-based, human
Experimental: Näive CD4 T+cells were purified from PBMCs by using microbeads (Miltenvi Biotec). Näive CD4^+ T cells ([…]) were cultured with regulatory T cells at a ratio of 10:1 in OKT3 (2 ug/ml)-coated, U bottomed 96-well plates containing the following ligands: LPS (100 ng/ml), imiquimod (10 μg/ml), loxoribine (500 μM), poly(I:C) (25 μg/ml), ssRNA40/LyoVec (3 μg/ml), ssRNA33/LyoVec (3 μg/ml), pam3CSK4 (200 ng/ml) and flagellin (10 μg/ml) were purchased from Invivogene (San Diego, Calif.), while CpG-A (3 μg/ml), CpG-B (3 μg/ml) and Poly-G oligonucleotides (3 μg/ml) were synthesized in Integrated DNA Technologies, Inc (Coralville, Iowa). Functional assays were identical to those described above.
If the TLR8-MyD88-IRAK4 signaling pathway is necessary and sufficient for direct reversal of the suppressive function of Treg cells, it should be possible to produce that effect with natural ligands for human TLR8. For FIG. 4A-B, naive CD4^+ T cells were mixed with Treg102, Treg164 or naturally occurring CD4^+ CD25^+ Treg cells in anti-CD3 antibody-coated wells in the presence of different TLR ligands. Data are presented as means±SD and represent results from three independent experiments.

Compound | restoration of proliferation of naive CD4+ T cells in the presence of Treg cells
poly(I:C) | failed to restore the proliferation of naive CD4^+ T cells
flagellin | failed to restore the proliferation of naive CD4^+ T cells
C=CCn1c(=O)n([C@@H]2O[C@H](CO)[C@@H](O)[C@H]2O)c2nc(N)[nH]c(=O)c21 [loxoribine] | failed to restore the proliferation of naive CD4^+ T cells
CpG-B: CpG-B oligonucleotide, ligand for TLR9 (DNA GGGGGAGCATGCTGCGGGGG; listed as DNA, chemistry not given here) | failed to restore the proliferation of naive CD4^+ T cells
